From patent publication US11154057B2, “Use of nootkatone to treat mosquito infestations” (EVOLVA SA, priority 2016, dated 2021)
Where two headings read alike, the source gives them in different places.

Tests used:
Assay type in all cases: in vivo
Aedes aegypti pupae = experiment: Prevention of adult emergence (eclosion) from pupae (Example No. 7); conditions: for Dead adults, total number / Dead pupae, total number / live adults, total number / live pupae, total number: 0.015% NK/0.5% EtOH in water
Method: Eggs of Aedes aegypti were purchased from a commercial supplier. They were hatched in sterile MilliQ water and fed with finely ground Tetramin® fish food until they developed into pupae.
Clean, glass 600 mL beakers were washed and thoroughly rinsed prior to use as test containers. On each of four testing days, pupae were removed from dishes used to grow larvae. Replicates of 10 pupae each were randomly assigned to glass beakers in a volume of 100 mL of sterile MilliQ water, and a treatment of nootkatone (see “Treatments” below), or a control treatment of ethanol alone, was added. The beakers were then covered lightly with Kimwipes, secured by rubber bands to prevent escape of adults. […]
An aliquot of 0.5 mL of a 3% solution (w/v) of nootkatone in 100% ethanol was added to treatment beakers to obtain a final concentration of 0.015% nootkatone/0.5% ethanol. Control beakers received 0.5 mL of 100% ethanol, to obtain a final concentration of 0.5% ethanol.

[1] = test system: Adult Aedes aegypti mosquitoes; experiment: Prevention of adult mosquito egg laying on treated filter papers; fecundity and adult mortality (Example No. 8); conditions: for Adult mosquito mortality: Affected, mean / Adult mosquito mortality: Dead, mean / Adult mosquito mortality: Knockdown, mean: 1% NK treated filter paper, cage of 100 mosquitoes; for Percent fecundity reduction, average: filter paper treated with 1 mL, dried, versus untreated paper in the same cage of 100 blood fed mosquitoes, triplicate
Method: Adult Aedes aegypti mosquitoes from a laboratory were blood fed and mated. Testing was conducted 2 days after administration of the blood meal to ensure that females were ready to oviposit.
White filter paper was cut to fit Petri dishes 9 cm in diameter, and each paper was treated with 1 mL of ethanol, 1% nootkatone, Formulation ECS-F-#605, or Formulation ECS-F_#607 (see Table No. 5). The filter papers were allowed to dry completely, and two Petri dishes were added to each cage of 100 blood fed mosquitoes, one treated, and one untreated control. A few milliliters of water was added to each Petri dish to provide a suitable egg laying site. […] Each treatment was tested in triplicate.
Female mosquitoes lay a high density of eggs (black spots) on suitable egg laying substrates, such as white filter paper. It was anticipated that either adult females would be repelled from egg laying sites that were treated with nootkatone, or that they would attempt to land and be poisoned by contacting nootkatone on the water surface. The rate of egg laying on the treated surface and the control surface, the presence of any adults found dead on the surface, and the overall mortality rate on a daily basis were recorded, and the average and standard error were calculated versus the untreated controls. […] An unexpected result was that filter papers treated with ethanol alone had 24% more eggs laid than the average of the untreated filter papers in the same cages. […] Photographs of representative filter papers are shown in FIG. 15, 1% nootkatone treatment (left), ethanol-only control (right).

Aedes aegypti eggs = experiment: Prevention of mosquito egg hatching (Example No. 5); conditions: 0.03% nootkatone/1% ethanol, 24 hours
Method: Mosquito eggs from Aedes aegypti and Anopheles quadrimaculatus mosquitoes were obtained from a commercial source.
In a second experiment, Aedes aegypti eggs were divided into cohorts of ˜100 eggs. Each cohort was placed inside a clean 9 cm Petri dish after receiving mock treatment or a true treatment with nootkatone (see “Treatments”), after which the Petri dish was covered with its lid and held at 30-35° C. to allow hatching. Hatching was scored as the number of live larvae after 24 hours. Four cohorts were tested per treatment.
An aliquot of 0.2 mL of a 3% solution (w/v) of nootkatone in 100% ethanol was added to 20 mL of sterile MilliQ water in treatment Petri dishes to obtain a final concentration of 0.03% nootkatone/1% ethanol. Control beakers received 0.2 mL of 100% ethanol, to obtain a final concentration of 1% ethanol.
The rate of egg hatching was calculated for each treatment and control egg cohort, and the results of at least 4 cohorts were averaged, and used to calculate the relative hatch rate for treatments versus controls (see FIG. 11). […] Therefore, nootkatone treatment of mosquito breeding sites will effectively reduce mosquito populations by preventing hatching and killing hatched larvae.

mosquito larvae = test system: mosquito larvae
Method: In this example, concentration titration was performed to determine effective concentrations of nootkatone in nootkatone-containing protective compositions that maintain larvicidal activity, and to determine the effect of surface area on larvicidal activity of nootkatone-containing compositions.
One milliliter of a solution of nootkatone in ethanol was applied directly to 200 milliliters of water containing larvae, using a micropipette. One treatment condition used 3% (v/v) nootkatone in ethanol, a second treatment condition used 1% (v/v) nootkatone in ethanol, and a third treatment used 0.5% (v/v) nootkatone in ethanol, for final concentrations of 30, 10, or 5 mg of nootkatone added per container. One milliliter of pure ethanol was used as a control. Three replicates of 25 larvae were tested per treatment in small- (250 mL flasks (23.8 cm^2 surface area) and medium-sized (600 mL beakers (54 cm^2 surface area)) containers, but only two replicates were made in large 1000 mL beakers (86.6 cm^2 surface area).
Containers were lightly covered with paper towels. Indicated surface areas were calculated based on the inside diameter of the container at the surface level when 200 mL water was added to the container.
Larvae were observed after 24 hours post-introduction to the test containers.
(§1) Readings were discontinued if treated mortality reached 100%, or control mortality exceeded 20%.

Aedes aegypti larvae = experiment: Larval bioassay comparing nootkatone with soy oil and mineral oil (Example No. 2); conditions: FIG. 3
Excerpt: This example describes a laboratory bioassay in which groups of mosquito larvae were exposed to compositions that contain oils, but not nootkatone, to determine whether larval mortality was due to suffocation by oils in general, or due to a specific property of nootkatone.
One milliliter of a solution of oil in ethanol was applied directly to 100 milliliters of water containing larvae, using a micropipette. One treatment condition used 3% (v/v) soybean oil in ethanol, and a second treatment condition used 3% (v/v) mineral oil in ethanol, for final concentrations of 0.03% (v/v), respectively. One milliliter of pure ethanol was used as a control, and 0.03% (v/v) nootkatone in ethanol was included as a comparison of efficacy. Two replicates of 25 larvae were tested per treatment in clean, glass 600 mL beakers.
as §1

[2] = 0.015% nootkatone/0.5% ethanol, after 48 hours, of 150 pupae

C=C(C)[C@@H]1CCC2=CC(=O)C[C@@H](C)[C@]2(C)C1 [Nootkatone, nootkatone]
Dead adults, total number (Aedes aegypti pupae; 2 DAT (48 hours), of 150 pupae): 47 | Dead pupae, total number (Aedes aegypti pupae; 2 DAT (48 hours), of 150 pupae): 103 | live adults, total number (Aedes aegypti pupae; 2 DAT (48 hours), of 150 pupae): 0 | live pupae, total number (Aedes aegypti pupae; 2 DAT (48 hours), of 150 pupae): 0 | Dead adults, total number (Aedes aegypti pupae; 24 hr, of 150 pupae): 31 | Dead pupae, total number (Aedes aegypti pupae; 24 hr, of 150 pupae): 31 | live adults, total number (Aedes aegypti pupae; 24 hr, of 150 pupae): 0 | live pupae, total number (Aedes aegypti pupae; 24 hr, of 150 pupae): 88 | survivors (Aedes aegypti pupae; 0.015% nootkatone/0.5% ethanol (v/v) in water, after 48 hours): no survivors | share of pupae that died as pupae (Aedes aegypti pupae; [2]): 68.7% | share of pupae that metamorphosed but died during eclosing (Aedes aegypti pupae; [2]): 31.3% | Adult mosquito mortality: Affected, mean ([1]; 1 day post-exposure): 6.7 per cage | Adult mosquito mortality: Dead, mean ([1]; 1 day post-exposure): 6.7 per cage | Adult mosquito mortality: Knockdown, mean ([1]; 1 day post-exposure): 0.0 per cage | Adult mosquito mortality: Affected, mean ([1]; 2 days post-exposure): 10.7 per cage | Adult mosquito mortality: Dead, mean ([1]; 2 days post-exposure): 10.7 per cage | Adult mosquito mortality: Knockdown, mean ([1]; 2 days post-exposure): 0.0 per cage | total eggs laid on treated papers in 3 cages ([1]; 1% nootkatone in ethanol, versus 700-1100 eggs per cage on untreated papers): 2 eggs | Percent fecundity reduction, average [1]: 99% | Percent fecundity reduction, average ([1]; listed as NK): 99.9% | reduction in egg hatching versus the controls (Aedes aegypti eggs): 37% | state of hatched larvae in treated dishes (Aedes aegypti eggs): all larvae in the treated dishes were dead | average number of hatched larvae per Petri dish (Aedes aegypti eggs; cohorts of ~100 eggs, four dishes, controls 13.5, FIG. 11): 8.5 larvae | larval mortality (mosquito larvae; 5 mg nootkatone in 200 mL water, 250 mL flasks, 23.8 cm^2, 24 hours): 68% | larvae killed (mosquito larvae; 5 mg nootkatone in 200 mL water, largest containers, 86.6 cm^2, 24 hours): did not kill | larval mortality (mosquito larvae; 5 mg nootkatone in 200 mL water, medium sized containers, 54 cm^2, 24 hours): 16% | larvae killed in 24 hours (mosquito larvae; 10 mg nootkatone in 200 mL water, flasks with smallest surface area 23.8 cm^2 (about 0.42 mg/cm^2)): killed all larvae | larvae killed in 24 hours (mosquito larvae; 30 mg nootkatone in 200 mL water, any container size (23.8, 54, 86.6 cm^2)): kill all larvae | surface concentration at which nootkatone exhibits larvicidal properties (mosquito larvae; 24 hours, water surface): at least 0.09 mg/cm^2 | larvae killed (Aedes aegypti larvae; 0.03% (v/v) final in water with ethanol, in 24 hours, two replicates of 25 larvae): 100% | effectiveness of killing larvae versus soy oil and mineral oil (Aedes aegypti larvae; 0.03% (v/v), after 24 hr treatment): more effective than either soy oil or mineral oil
